In ChEMBL document CHEMBL1130240, “Synthesis and structure-activity profiles of A-homoestranes, the estratropones” (J Med Chem, 1997):
pIC50: −log10 of the molar value.

Assays:
Tubulin beta chain [1] = target: T1, Tubulin beta chain (Bos taurus, UniProt Q6B856); assay: (§1) Inhibition of tubulin polymerization
Tubulin beta chain [2] = target: T1, Tubulin beta chain; assay: as §1; format: functional
Tubulin (Bos taurus) = Tubulin (Bos taurus) (UniProt Q6B856+Q862L2+Q862F3); assay: Inhibition of tubulin polymerization by colchicine to that of compound (IC50colchicine/IC50 drug); format: functional

T1 sequence (Q6B856 whole entry): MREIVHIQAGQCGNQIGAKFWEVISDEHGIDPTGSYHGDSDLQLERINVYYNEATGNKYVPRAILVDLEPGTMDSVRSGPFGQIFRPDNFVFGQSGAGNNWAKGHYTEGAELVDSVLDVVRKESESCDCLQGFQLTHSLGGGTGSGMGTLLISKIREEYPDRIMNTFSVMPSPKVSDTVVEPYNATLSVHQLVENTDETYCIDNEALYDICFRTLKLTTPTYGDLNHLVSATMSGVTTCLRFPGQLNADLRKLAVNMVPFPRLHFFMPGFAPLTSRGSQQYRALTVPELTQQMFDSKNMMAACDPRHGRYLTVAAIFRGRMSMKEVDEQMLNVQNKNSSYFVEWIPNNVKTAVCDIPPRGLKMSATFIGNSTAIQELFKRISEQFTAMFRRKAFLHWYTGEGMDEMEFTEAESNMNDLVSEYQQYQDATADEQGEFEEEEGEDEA

Row | SMILES | pIC50 (Tubulin beta chain [1]) | pIC50 (Tubulin beta chain [2]) | Activity (Tubulin (Bos taurus))
1 | COc1cc2c(cc1O)CC[C@@H]1[C@@H]2CC[C@]2(C)[C@@H](O)CC[C@@H]12 [2-METHOXYESTRADIOL] | 4.85 | – | –
2 | COc1ccc2c(cc1=O)CC[C@@H]1[C@@H]2CC[C@]2(C)[C@@H](O)CC[C@@H]12 | 5.09 | – | –
3 | C[C@]12CC[C@@H]3c4ccc(Cl)c(=O)cc4CC[C@H]3[C@@H]1CC[C@@H]2O | – | 5.55 | 4
4 | COc1cc2c(ccc1=O)CC[C@@H]1[C@@H]2CC[C@]2(C)[C@@H](O)CC[C@@H]12 | 4.53 | – | –
5 | C[C@]12CC[C@@H]3c4ccc(=O)c(Cl)cc4CC[C@H]3[C@@H]1CC[C@@H]2O | – | 5.01 | 1.1
6 | CCOc1cc2c(ccc1=O)[C@H]1CC[C@]3(C)[C@@H](O)CC[C@H]3[C@@H]1CC2 | 5.23 | – | –
7 | COc1cc2c(ccc1=O)[C@H]1CC[C@]3(C)[C@@H](O)CC[C@H]3[C@@H]1CC2 | 5.68 | – | –
8 | COc1ccc2c(cc1=O)[C@H]1CC[C@]3(C)[C@@H](O)CC[C@H]3[C@@H]1CC2 | 4.56 | – | –

More lines, now with the values ahead:

Row | pIC50 (Tubulin beta chain [1]) | pIC50 (Tubulin beta chain [2]) | Activity (Tubulin (Bos taurus)) | SMILES
9 | 5.14 | – | – | C[C@]12CC[C@@H]3c4cccc(=O)cc4CC[C@H]3[C@@H]1CC[C@@H]2O
10 | 4.95 | – | – | C[C@]12CC[C@@H]3c4ccc(=O)c(Br)cc4CC[C@H]3[C@@H]1CC[C@@H]2O
11 | – | 5.54 | 3.9 | C[C@]12CC[C@@H]3c4ccc(Br)c(=O)cc4CC[C@H]3[C@@H]1CC[C@@H]2O
12 | – | 5.36 | 2.5 | C[C@]12CC[C@@H]3c4ccc(=O)ccc4CC[C@H]3[C@@H]1CC[C@@H]2O
